Experimental data reported in US20210101874A1, “MICROBIOCIDAL OXADIAZOLE DERIVATIVES” (SYNGENTA PARTICIPATIONS AG, priority 2017, published 2021).

How the values were obtained:
[1] = tested on: Glomerella lagenarium (Colletotrichum lagenarium); assay: Glomerella lagenarium (Colletotrichum lagenarium) liquid culture / cucumber / preventative (anthracnose); assay type: cell-based; details: Colletotrichum orbiculare; 20 ppm in the applied formulation; conidia in PDB nutrient broth, 24° C.; 3 to 4 days after application; compared to untreated; read-out: disease control (inhibition of growth measured photometrically)
Method: Mycelia fragments or conidia suspensions of a fungus prepared either freshly from liquid cultures of the fungus or from cryogenic storage, are directly mixed into nutrient broth. DMSO solutions of the test compound (max. 10 mg/ml) are diluted with 0.025% Tween20 by a factor of 50 and 10 µl of this solution is pipetted into a microtiter plate (96-well format). The nutrient broth containing the fungal spores/mycelia fragments is then added to give an end concentration of the tested compound. The test plates are incubated in the dark at 24° C. and 96% relative humidity. The inhibition of fungal growth is determined photometrically after 2 to 7 days, depending on the pathosystem, and percent antifungal activity relative to the untreated check is calculated. Conidia of the fungus from cryogenic storage are directly mixed into nutrient broth (PDB—potato dextrose broth). After placing a (DMSO) solution of test compound into a microtiter plate (96-well format), the nutrient broth containing the fungal spores is added. The test plates are incubated at 24° C. and the inhibition of growth is measured photometrically 3 to 4 days after application. The following compounds at 20 ppm in the applied formulation give at least 80% disease control in this test when compared to untreated control under the same conditions, which show extensive disease development.

[2] = tested on: Puccinia recondita f. sp. Tritici; assay: Puccinia recondita f. sp. tritici / wheat / leaf disc preventative (brown rust); assay type: in vivo; details: foliar, 200 ppm in the applied formulation, wheat leaf segments cv. Kanzler, inoculated 1 day after application, compared to untreated, assessed 7 to 9 days after application, read-out: disease control
Method: Leaf disks or leaf segments of various plant species are cut from plants grown in a greenhouse. The cut leaf disks or segments are placed in multiwell plates (24-well format) onto water agar. The leaf disks are sprayed with a test solution before (preventative) or after (curative) inoculation. Compounds to be tested are prepared as DMSO solutions (max. 10 mg/ml) which are diluted to the appropriate concentration with 0.025% Tween20 just before spraying. The inoculated leaf disks or segments are incubated under defined conditions (temperature, relative humidity, light, etc.) according to the respective test system. A single evaluation of disease level is carried out 3 to 14 days after inoculation, depending on the pathosystem. Percent disease control relative to the untreated check leaf disks or segments is then calculated. Wheat leaf segments cv. Kanzler were placed on agar in multiwell plates (24-well format) and sprayed with the formulated test compound diluted in water. The leaf disks were inoculated with a spore suspension of the fungus 1 day after application. The inoculated leaf segments were incubated at 19° C. and 75% relative humidity (rh) under a light regime of 12 hours light/12 hours darkness in a climate cabinet and the activity of a compound was assessed as percent disease control compared to untreated when an appropriate level of disease damage appears in untreated check leaf segments (7 to 9 days after application). The following compounds at 200 ppm in the applied formulation give at least 80% disease control in this test when compared to untreated control leaf disks under the same conditions, which show extensive disease development.

Row | Compound | inhibition at 20 ppm [1] [%] | pest or weed control at 200 ppm [2] [%]
1 | CCCCS(=O)(=O)NCc1ccc(-c2noc(C(F)(F)F)n2)c(F)c1 [Compound 2.22, N-[[3-fluoro-4-[5-(trifluoromethyl)-1,2,4-oxadiazol-3-yl]phenyl]methyl] butane-1-sulfonamide] | ≥ 80 | ≥ 80
2 | CCCN(Cc1ccc(-c2noc(C(F)(F)F)n2)cc1)S(=O)(=O)N1CCCC1 [Compound 1.68, N-propyl-N-[[4-[5-(trifluoromethyl)-1,2,4-oxadiazol-3-yl]phenyl]methyl] pyrrolidine-1-sulfonamide] | ≥ 80 | ≥ 80
3 | O=S(=O)(CC1CC1(Cl)Cl)NCc1ccc(-c2noc(C(F)(F)F)n2)cc1 (centres unmarked) [Compound 3.12, 1-(2,2-dichlorocyclopropyl)-N-[[4-[5-(trifluoromethyl)-1,2,4-oxadiazol-3-yl]phenyl]methyl] methanesulfonamide] | ≥ 80 | ≥ 80
4 | CCCN(Cc1ccc(-c2noc(C(F)(F)F)n2)cc1)S(=O)(=O)c1ccn(C)n1 [Compound 1.65, 1-methyl-N-propyl-N-[[4-[5-(trifluoromethyl)-1,2,4-oxadiazol-3-yl]phenyl]methyl] pyrazole-3-sulfonamide] | ≥ 80 | ≥ 80
5 | CCCCS(=O)(=O)NCc1ccc(-c2noc(C(F)(F)F)n2)cc1 [Compound 2.12, N-[[4-[5-(trifluoromethyl)-1,2,4-oxadiazol-3-yl]phenyl]methyl] butane-1-sulfonamide] | ≥ 80 | ≥ 80
6 | COC(=O)CS(=O)(=O)NCc1ccc(-c2noc(C(F)(F)F)n2)cc1F [Compound 2.37, methyl 2-[[2-fluoro-4-[5-(trifluoromethyl)-1,2,4-oxadiazol-3-yl]phenyl]methyl-sulfamoyl] acetate] | ≥ 80 | ≥ 80
7 | COC(=O)CCS(=O)(=O)N(C)Cc1ccc(-c2noc(C(F)(F)F)n2)cc1 [Compound 1.48, methyl 3-[methyl-[[4-[5-(trifluoromethyl)-1,2,4-oxadiazol-3-yl]phenyl]methyl]sulfamoyl]propanoate] | ≥ 80 | ≥ 80
8 | Cc1ccc(S(=O)(=O)NCc2ccc(-c3noc(C(F)(F)F)n3)cc2)s1 [Compound 3.11, 5-methyl-N-[[4-[5-(trifluoromethyl)-1,2,4-oxadiazol-3-yl]phenyl]methyl] thiophene-2-sulfonamide] | ≥ 80 | ≥ 80
9 | CCN(Cc1ccc(-c2noc(C(F)(F)F)n2)cc1)S(=O)(=O)N1CCCC1 [Compound 1.32, N-ethyl-N-[[4-[5-(trifluoromethyl)-1,2,4-oxadiazol-3-yl]phenyl]methyl] pyrrolidine-1-sulfonamide] | ≥ 80 | ≥ 80
10 | CCCN(Cc1ccc(-c2noc(C(F)(F)F)n2)cc1)S(=O)(=O)CC1CCOC1 (centres unmarked) [Compound 1.71, N-propyl-1-tetrahydrofuran-3-yl-N-[[4-[5-(trifluoromethyl)-1,2,4-oxadiazol-3-yl]phenyl]methyl] methanesulfonamide] | ≥ 80 | ≥ 80
11 | O=S(=O)(CCC(F)(F)F)NCc1ccc(-c2noc(C(F)(F)F)n2)c(F)c1 [Compound 2.18, 3,3,3-trifluoro-N-[[3-fluoro-4-[5-(trifluoromethyl)-1,2,4-oxadiazol-3-yl]phenyl]methyl] propane-1-sulfonamide] | ≥ 80 | ≥ 80
12 | COC(=O)CS(=O)(=O)N(C)Cc1ccc(-c2noc(C(F)(F)F)n2)cc1 [Compound 1.53, methyl 2-[methyl-[[4-[5-(trifluoromethyl)-1,2,4-oxadiazol-3-yl]phenyl]methyl]sulfamoyl]acetate] | ≥ 80 | ≥ 80
13 | COC(=O)CCS(=O)(=O)N(Cc1ccc(-c2noc(C(F)(F)F)n2)cc1)OC [Compound 1.93, methyl 3-[methoxy-[[4-[5-(trifluoromethyl)-1,2,4-oxadiazol-3-yl]phenyl]methyl]sulfamoyl]propanoate] | ≥ 80 | ≥ 80
14 | CCN(Cc1ccc(-c2noc(C(F)(F)F)n2)cc1)S(=O)(=O)CCC(=O)OC [Compound 1.36, methyl 3-[ethyl-[[4-[5-(trifluoromethyl)-1,2,4-oxadiazol-3-yl]phenyl]methyl]sulfamoyl]propanoate] | ≥ 80 | ≥ 80
15 | COC(=O)CCS(=O)(=O)NCc1ccc(-c2noc(C(F)(F)F)n2)cc1F [Compound 2.33, methyl 3-[[2-fluoro-4-[5-(trifluoromethyl)-1,2,4-oxadiazol-3-yl]phenyl]methyl-sulfamoyl] propanoate] | ≥ 80 | ≥ 80
16 | O=S(=O)(NCc1ccc(-c2noc(C(F)(F)F)n2)cc1)N1CCCC1 [Compound 3.13, N-[[4-[5-(trifluoromethyl)-1,2,4-oxadiazol-3-yl]phenyl]methyl] pyrrolidine-1-sulfonamide] | ≥ 80 | ≥ 80
17 | O=S(=O)(CC1CC1(Cl)Cl)NCc1ccc(-c2noc(C(F)(F)F)n2)c(F)c1 (centres unmarked) [Compound 3.16, 1-(2,2-dichlorocyclopropyl)-N-[[3-fluoro-4-[5-(trifluoromethyl)-1,2,4-oxadiazol-3-yl]phenyl]methyl] methanesulfonamide] | ≥ 80 | ≥ 80
18 | O=S(=O)(NCc1ccc(-c2noc(C(F)(F)F)n2)c(F)c1)c1ccccc1 [Compound 3.9, N-[[3-fluoro-4-[5-(trifluoromethyl)-1,2,4-oxadiazol-3-yl]phenyl]methyl] benzenesulfonamide] | ≥ 80 | ≥ 80
19 | CCNS(=O)(=O)N(Cc1ccc(-c2noc(C(F)(F)F)n2)cc1)OC [Compound 1.18, 3-[4-[[ethylsulfamoyl (methoxy)amino]methyl]phenyl]-5-(trifluoromethyl)-1,2,4-oxadiazole] | ≥ 80 | ≥ 80
20 | CN(Cc1ccc(-c2noc(C(F)(F)F)n2)cc1)S(=O)(=O)N1CCCC1 [Compound 1.44, N-methyl-N-[[4-[5-(trifluoromethyl)-1,2,4-oxadiazol-3-yl]phenyl]methyl] pyrrolidine-1-sulfonamide] | ≥ 80 | ≥ 80
21 | CCCNS(=O)(=O)N(Cc1ccc(-c2noc(C(F)(F)F)n2)cc1)OC [Compound 1.22, 3-[4-[[methoxy (propylsulfamoyl)amino]methyl]phenyl]-5-(trifluoromethyl)-1,2,4-oxadiazole] | ≥ 80 | ≥ 80
22 | CON(Cc1ccc(-c2noc(C(F)(F)F)n2)cn1)S(=O)(=O)c1ccccc1 [Compound 1.111, N-methoxy-N-[[5-[5-(trifluoromethyl)-1,2,4-oxadiazol-3-yl]-2-pyridyl]methyl] benzenesulfonamide] | ≥ 80 | ≥ 80
